Patent publication US20130303509A1, “NAMPT INHIBITORS” (AbbVie Inc., priority 2012, published 2013)

What follows are compounds tested on PC3 cells (assay: NAMPT Cell Proliferation Assay). Conditions: Homo sapiens, PC-3, 120 h, 5 days incubation, cell viability by Cell Titer Glo.
Assay type: cell-based
Summary of the method: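 Five-day CellTiter-Glo viability readout in PC3 cells grown in RPMI/10% heat-inactivated FBS. Compounds added after overnight attachment as a 10-fold dilution series, […]. Percent inhibition fitted to sigmoidal dose-response to derive IC50.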

| IC50 | Structure (SMILES) |
| --- | --- |
| 5.99 nM | O=C(Nc1ccc(OC2CCN(C(=O)C3CCC(F)(F)CC3)CC2)cc1)C1CN(c2cccnn2)C1 [Example 216, N-[4-({1-[(4,4-difluorocyclohexyl)carbonyl]piperidin-4-yl}oxy)phenyl]-1-(pyridazin-3-yl)azetidine-3-carboxamide] |
| 81.4 nM | O=C(Nc1ccc(S(=O)(=O)C2CCN(C(=O)c3ccc(C(F)(F)F)cc3)CC2)cc1)C1CN(c2cccnn2)C1 [Example 587, 1-(pyridazin-3-yl)-N-[4-({1-[4-(trifluoromethyl)benzoyl]piperidin-4-yl}sulfonyl)phenyl]azetidine-3-carboxamide] |
| 142 nM | O=C(Nc1ccc(O[C@@H]2CCN(C(=O)C3CCCO3)C2)cc1)C1CN(c2ccnnc2)C1 (stereo partly drawn) [Example 457, 1-(pyridazin-4-yl)-N-(4-{[(3R)-1-(tetrahydrofuran-2-ylcarbonyl)pyrrolidin-3-yl]oxy}phenyl)azetidine-3-carboxamide] |
| 74 nM | O=C(Nc1ccc(OC2CCN(C(=O)c3cccc(F)c3)CC2)cc1)C1CN(c2ccnnc2)C1 [Example 286, N-(4-{[1-(3-fluorobenzoyl)piperidin-4-yl]oxy}phenyl)-1-(pyridazin-4-yl)azetidine-3-carboxamide] |
| 2.07 nM | O=C(Nc1ccc(C2CCN(C(=O)C3(c4ccccc4)CC3)CC2)cc1)[C@H]1CCN(c2cccnn2)C1 [Example 702, (3S)-N-(4-{1-[(1-phenylcyclopropyl)carbonyl]piperidin-4-yl}phenyl)-1-(pyridazin-3-yl)pyrrolidine-3-carboxamide] |
| 6.48 nM | O=C(Nc1ccc(OC2CCN(C(=O)c3ccsc3)CC2)cc1)C1CN(c2cccnc2)C1 [Example 58, 1-(pyridin-3-yl)-N-(4-{[1-(thiophen-3-ylcarbonyl)piperidin-4-yl]oxy}phenyl)azetidine-3-carboxamide] |
| 97.9 nM | O=C(Nc1ccc(S(=O)(=O)C2CCN(C(=O)c3cccc(F)c3F)CC2)cc1)C1CN(c2cccnn2)C1 [Example 589, N-(4-{[1-(2,3-difluorobenzoyl)piperidin-4-yl]sulfonyl}phenyl)-1-(pyridazin-3-yl)azetidine-3-carboxamide] |
| 6.56 nM | O=C(Nc1ccc(O[C@@H]2CCN(C(=O)c3ccccc3F)C2)cc1)C1CN(c2ccnnc2)C1 [Example 472, N-(4-{[(3R)-1-(2-fluorobenzoyl)pyrrolidin-3-yl]oxy}phenyl)-1-(pyridazin-4-yl)azetidine-3-carboxamide] |
| 0.82 nM | O=C(Nc1ccc(O[C@@H]2CCN(C(=O)c3cccs3)C2)cc1)C1CN(c2cccnn2)C1 [Example 511, 1-(pyridazin-3-yl)-N-(4-{[(3R)-1-(thiophen-2-ylcarbonyl)pyrrolidin-3-yl]oxy}phenyl)azetidine-3-carboxamide] |
| 80.7 nM | O=C(Nc1ccc(OC2CCN(C(=O)c3ccc(OC(F)(F)F)cc3)CC2)cc1)C1CN(c2ccnnc2)C1 [Example 290, 1-(pyridazin-4-yl)-N-[4-({1-[4-(trifluoromethoxy)benzoyl]piperidin-4-yl}oxy)phenyl]azetidine-3-carboxamide] |
| 609 nM | CC1(C(=O)N2CCC(c3ccc(C(=O)NC4CN(c5cccnn5)C4)s3)CC2)CC1 [Example 848, 5-{1-[(1-methylcyclopropyl)carbonyl]piperidin-4-yl}-N-[1-(pyridazin-3-yl)azetidin-3-yl]thiophene-2-carboxamide] |
| 58.9 nM | Cc1ncccc1N1CC(C(=O)Nc2ccc(C3CCN(C(=O)c4ccccc4F)CC3)cc2)C1 [Example 150, N-{4-[1-(2-fluorobenzoyl)piperidin-4-yl]phenyl}-1-(2-methylpyridin-3-yl)azetidine-3-carboxamide] |
| 7.98 nM | O=C(Nc1ccc(OC2CCN(C(=O)Cc3ccccc3F)CC2)cc1)C1CN(c2cccnn2)C1 [Example 247, N-[4-({1-[(2-fluorophenyl)acetyl]piperidin-4-yl}oxy)phenyl]-1-(pyridazin-3-yl)azetidine-3-carboxamide] |
